Reference: article PMC5666424, “Marine-Derived 2-Aminoimidazolone Alkaloids. Leucettamine B-Related Polyandrocarpamines Inhibit Mammalian and Protozoan DYRK & CLK Kinases” (Marine Drugs, 2017)

What was measured:
Experiment in all cases: KinomeScan
Assay type in all cases: binding
Settings in all cases: 1 μM
[1] = molecular target: T1, ABL1(E255K)-phosphorylated (Homo sapiens, UniProt P00519, E255K)
T1 construct: purchased DiscoverX (KINOMEscan)

[2] = molecular target: T2, ABL1(F317I)-phosphorylated (Homo sapiens, UniProt P00519, F317I)
T2 construct: purchased DiscoverX (KINOMEscan)

[3] = molecular target: T3, ABL1(M351T)-phosphorylated (Homo sapiens, UniProt P00519, M351T)
T3 construct: purchased DiscoverX (KINOMEscan)

ADCK4 = molecular target: T4, ADCK4 (Homo sapiens, UniProt Q96D53)
T4 construct: purchased DiscoverX (KINOMEscan)

AKT2 = molecular target: T5, AKT2 (Homo sapiens, UniProt P31751)
T5 construct: purchased DiscoverX (KINOMEscan)

ASK2 = molecular target: T6, ASK2 (Homo sapiens, UniProt O95382)
T6 construct: purchased DiscoverX (KINOMEscan)

AURKA = molecular target: T7, AURKA (Homo sapiens, UniProt O14965)
T7 construct: purchased DiscoverX (KINOMEscan)

AURKC = molecular target: T8, AURKC (Homo sapiens, UniProt Q9UQB9)
T8 construct: purchased DiscoverX (KINOMEscan)

AXL = molecular target: T9, AXL (Homo sapiens, UniProt P30530)
T9 construct: purchased DiscoverX (KINOMEscan)

BRSK1 = molecular target: T10, BRSK1 (Homo sapiens, UniProt Q8TDC3)
T10 construct: purchased DiscoverX (KINOMEscan)

CAMK1D = molecular target: T11, CAMK1D (Homo sapiens, UniProt Q8IU85)
T11 construct: purchased DiscoverX (KINOMEscan)

CHEK1 = molecular target: T12, CHEK1 (Homo sapiens, UniProt O14757)
T12 construct: purchased DiscoverX (KINOMEscan)

CSNK1G1 = molecular target: T13, CSNK1G1 (Homo sapiens, UniProt Q9HCP0)
T13 construct: purchased DiscoverX (KINOMEscan)

EGFR = molecular target: T14, EGFR (Homo sapiens, UniProt P00533)
T14 construct: purchased DiscoverX (KINOMEscan)

EPHA7 = molecular target: T15, EPHA7 (Homo sapiens, UniProt Q15375)
T15 construct: purchased DiscoverX (KINOMEscan)

ERN1 = molecular target: T16, ERN1 (Homo sapiens, UniProt O75460)
T16 construct: purchased DiscoverX (KINOMEscan)

FGFR3 = molecular target: T17, FGFR3 (Homo sapiens, UniProt P22607)
T17 construct: purchased DiscoverX (KINOMEscan)

FLT3(R834Q) = molecular target: T18, FLT3(R834Q) (Homo sapiens, UniProt P36888, R834Q)
T18 construct: purchased DiscoverX (KINOMEscan)

GCN2(Kin.Dom.2,S808G) = molecular target: T19, GCN2(Kin.Dom.2,S808G) (Homo sapiens, UniProt Q9P2K8, S808G)
T19 construct: GCN2(Kin.Dom.2,S808G); purchased DiscoverX (KINOMEscan)

GRK1 = molecular target: T20, GRK1 (Homo sapiens, UniProt Q15835)
T20 construct: purchased DiscoverX (KINOMEscan)

GSK3B = molecular target: T21, GSK3B (Homo sapiens, UniProt P49841)
T21 construct: purchased DiscoverX (KINOMEscan)

HIPK1 = molecular target: T22, HIPK1 (Homo sapiens, UniProt Q86Z02)
T22 construct: purchased DiscoverX (KINOMEscan)

IKK-alpha = molecular target: T23, IKK-alpha (Homo sapiens, UniProt O15111)
T23 construct: purchased DiscoverX (KINOMEscan)

INSR = molecular target: T24, INSR (Homo sapiens, UniProt P06213)
T24 construct: purchased DiscoverX (KINOMEscan)

KIT(V559D) = molecular target: T25, KIT(V559D) (Homo sapiens, UniProt P10721, V559D)
T25 construct: purchased DiscoverX (KINOMEscan)

KIT(V559D,V654A) = molecular target: T26, KIT(V559D,V654A) (Homo sapiens, UniProt P10721, V559D/V654A)
T26 construct: purchased DiscoverX (KINOMEscan)

MEK6 = molecular target: T27, MEK6 (Homo sapiens, UniProt P52564)
T27 construct: purchased DiscoverX (KINOMEscan)

MET = molecular target: T28, MET (Homo sapiens, UniProt P08581)
T28 construct: purchased DiscoverX (KINOMEscan)

MLCK = molecular target: T29, MLCK (Homo sapiens, UniProt Q32MK0)
T29 construct: purchased DiscoverX (KINOMEscan)

MLK2 = molecular target: T30, MLK2 (Homo sapiens, UniProt Q02779)
T30 construct: purchased DiscoverX (KINOMEscan)

NEK11 = molecular target: T31, NEK11 (Homo sapiens, UniProt Q8NG66)
T31 construct: purchased DiscoverX (KINOMEscan)

NIM1 = molecular target: T32, NIM1 (Homo sapiens, UniProt Q8IY84)
T32 construct: purchased DiscoverX (KINOMEscan)

SRC = molecular target: T33, SRC (Homo sapiens, UniProt P12931)
T33 construct: purchased DiscoverX (KINOMEscan)

TAOK3 = molecular target: T34, TAOK3 (Homo sapiens, UniProt Q9H2K8)
T34 construct: purchased DiscoverX (KINOMEscan)

TNNI3K = molecular target: T35, TNNI3K (Homo sapiens, UniProt Q59H18)
T35 construct: purchased DiscoverX (KINOMEscan)

YANK3 = molecular target: T36, YANK3 (Homo sapiens, UniProt Q86UX6)
T36 construct: purchased DiscoverX (KINOMEscan)

T4 sequence (Q96D53 whole entry): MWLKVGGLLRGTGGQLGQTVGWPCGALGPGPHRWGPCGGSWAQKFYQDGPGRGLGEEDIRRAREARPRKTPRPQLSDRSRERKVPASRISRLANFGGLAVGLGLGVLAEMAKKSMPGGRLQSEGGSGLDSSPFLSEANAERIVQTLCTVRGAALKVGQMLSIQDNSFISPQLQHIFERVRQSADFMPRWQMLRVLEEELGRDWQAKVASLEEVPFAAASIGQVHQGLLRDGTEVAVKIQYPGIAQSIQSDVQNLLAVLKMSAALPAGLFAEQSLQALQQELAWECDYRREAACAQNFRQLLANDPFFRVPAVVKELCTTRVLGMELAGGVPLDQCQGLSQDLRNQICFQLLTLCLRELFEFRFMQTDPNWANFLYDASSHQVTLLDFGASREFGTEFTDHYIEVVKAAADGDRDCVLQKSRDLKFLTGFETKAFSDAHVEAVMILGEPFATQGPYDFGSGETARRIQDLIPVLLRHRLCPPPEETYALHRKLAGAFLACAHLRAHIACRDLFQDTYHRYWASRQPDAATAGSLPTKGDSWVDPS
T8 sequence (Q9UQB9 whole entry): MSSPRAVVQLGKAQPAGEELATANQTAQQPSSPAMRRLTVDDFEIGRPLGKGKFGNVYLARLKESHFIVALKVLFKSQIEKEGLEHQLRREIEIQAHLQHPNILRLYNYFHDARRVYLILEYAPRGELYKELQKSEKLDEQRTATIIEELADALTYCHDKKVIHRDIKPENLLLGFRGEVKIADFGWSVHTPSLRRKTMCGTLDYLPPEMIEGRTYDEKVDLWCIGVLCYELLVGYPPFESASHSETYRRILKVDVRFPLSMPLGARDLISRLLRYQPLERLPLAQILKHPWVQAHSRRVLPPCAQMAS
T25 sequence (P10721 26-976 V559D): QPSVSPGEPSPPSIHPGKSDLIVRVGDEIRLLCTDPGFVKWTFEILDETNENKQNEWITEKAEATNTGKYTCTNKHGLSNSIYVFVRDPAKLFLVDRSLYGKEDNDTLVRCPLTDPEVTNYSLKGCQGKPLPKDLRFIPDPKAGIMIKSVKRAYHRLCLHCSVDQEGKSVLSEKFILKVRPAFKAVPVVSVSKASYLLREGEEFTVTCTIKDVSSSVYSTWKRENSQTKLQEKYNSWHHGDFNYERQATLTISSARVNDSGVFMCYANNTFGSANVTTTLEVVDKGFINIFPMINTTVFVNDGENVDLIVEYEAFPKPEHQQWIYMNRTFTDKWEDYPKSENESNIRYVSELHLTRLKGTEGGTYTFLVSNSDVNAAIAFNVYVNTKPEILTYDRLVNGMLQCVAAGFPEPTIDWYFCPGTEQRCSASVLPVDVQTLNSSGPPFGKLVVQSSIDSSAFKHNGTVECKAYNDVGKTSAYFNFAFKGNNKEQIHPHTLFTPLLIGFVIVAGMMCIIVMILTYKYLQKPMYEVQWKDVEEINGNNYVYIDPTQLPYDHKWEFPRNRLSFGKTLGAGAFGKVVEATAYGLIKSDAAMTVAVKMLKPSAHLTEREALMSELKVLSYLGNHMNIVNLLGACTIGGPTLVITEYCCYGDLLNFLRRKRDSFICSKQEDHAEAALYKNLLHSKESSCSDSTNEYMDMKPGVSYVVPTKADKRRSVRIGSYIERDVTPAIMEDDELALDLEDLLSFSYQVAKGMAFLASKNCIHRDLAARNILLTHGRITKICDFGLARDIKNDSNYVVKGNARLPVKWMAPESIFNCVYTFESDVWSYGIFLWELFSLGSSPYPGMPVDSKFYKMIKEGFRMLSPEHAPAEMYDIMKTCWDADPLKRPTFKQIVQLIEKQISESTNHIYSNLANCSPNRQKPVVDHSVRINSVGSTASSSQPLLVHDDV
T14 sequence (P00533 25-1210): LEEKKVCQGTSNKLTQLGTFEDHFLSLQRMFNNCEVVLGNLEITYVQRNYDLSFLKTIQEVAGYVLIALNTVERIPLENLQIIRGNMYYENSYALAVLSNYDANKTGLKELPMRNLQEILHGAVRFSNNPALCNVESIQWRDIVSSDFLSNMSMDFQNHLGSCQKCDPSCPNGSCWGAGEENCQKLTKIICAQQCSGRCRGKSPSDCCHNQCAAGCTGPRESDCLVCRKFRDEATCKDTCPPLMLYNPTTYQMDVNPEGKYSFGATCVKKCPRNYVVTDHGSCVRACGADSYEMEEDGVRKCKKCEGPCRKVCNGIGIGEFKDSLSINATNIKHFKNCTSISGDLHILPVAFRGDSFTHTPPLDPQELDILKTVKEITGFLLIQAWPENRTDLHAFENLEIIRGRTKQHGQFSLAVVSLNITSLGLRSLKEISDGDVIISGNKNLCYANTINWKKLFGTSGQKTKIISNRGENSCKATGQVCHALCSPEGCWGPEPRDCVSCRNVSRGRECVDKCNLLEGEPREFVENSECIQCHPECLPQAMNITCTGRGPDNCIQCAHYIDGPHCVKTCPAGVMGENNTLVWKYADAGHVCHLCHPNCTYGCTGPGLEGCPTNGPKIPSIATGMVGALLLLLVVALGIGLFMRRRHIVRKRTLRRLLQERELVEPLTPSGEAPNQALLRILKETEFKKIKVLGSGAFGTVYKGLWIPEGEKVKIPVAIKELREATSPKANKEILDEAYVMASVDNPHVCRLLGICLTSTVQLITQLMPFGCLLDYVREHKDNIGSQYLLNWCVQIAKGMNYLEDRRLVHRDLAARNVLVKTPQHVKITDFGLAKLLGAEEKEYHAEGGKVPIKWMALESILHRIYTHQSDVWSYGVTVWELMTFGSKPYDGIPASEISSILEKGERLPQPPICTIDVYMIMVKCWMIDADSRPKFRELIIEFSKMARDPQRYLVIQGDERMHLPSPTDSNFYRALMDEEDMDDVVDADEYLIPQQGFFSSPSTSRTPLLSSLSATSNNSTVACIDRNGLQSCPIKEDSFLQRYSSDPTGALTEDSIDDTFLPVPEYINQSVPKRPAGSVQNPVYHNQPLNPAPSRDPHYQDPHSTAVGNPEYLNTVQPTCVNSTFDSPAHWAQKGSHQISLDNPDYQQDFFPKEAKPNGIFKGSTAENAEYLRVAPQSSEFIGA
T34 sequence (Q9H2K8 whole entry): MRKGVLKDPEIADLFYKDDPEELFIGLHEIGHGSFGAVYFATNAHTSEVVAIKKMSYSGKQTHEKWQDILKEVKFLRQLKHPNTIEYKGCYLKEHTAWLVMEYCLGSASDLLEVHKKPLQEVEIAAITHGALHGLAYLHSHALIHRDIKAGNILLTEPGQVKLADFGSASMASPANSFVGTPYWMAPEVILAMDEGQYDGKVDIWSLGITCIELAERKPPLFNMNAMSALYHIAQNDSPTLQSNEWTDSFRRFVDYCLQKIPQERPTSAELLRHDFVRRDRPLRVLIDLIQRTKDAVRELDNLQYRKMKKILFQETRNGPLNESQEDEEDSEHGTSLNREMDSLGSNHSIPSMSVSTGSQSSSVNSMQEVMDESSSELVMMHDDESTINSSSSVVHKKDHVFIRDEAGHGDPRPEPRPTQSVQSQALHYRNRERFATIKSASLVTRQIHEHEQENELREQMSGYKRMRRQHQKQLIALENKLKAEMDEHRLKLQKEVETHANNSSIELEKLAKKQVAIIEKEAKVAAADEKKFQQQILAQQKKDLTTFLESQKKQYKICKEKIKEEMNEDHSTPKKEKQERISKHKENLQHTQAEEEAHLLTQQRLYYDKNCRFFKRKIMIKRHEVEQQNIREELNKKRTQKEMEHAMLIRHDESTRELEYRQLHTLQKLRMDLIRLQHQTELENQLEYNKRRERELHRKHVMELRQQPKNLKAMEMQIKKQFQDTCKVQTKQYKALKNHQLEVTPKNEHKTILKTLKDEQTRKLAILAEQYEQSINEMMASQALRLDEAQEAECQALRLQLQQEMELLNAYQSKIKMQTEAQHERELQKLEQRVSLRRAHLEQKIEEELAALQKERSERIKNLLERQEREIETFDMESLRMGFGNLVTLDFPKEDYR
T32 sequence (Q8IY84 whole entry): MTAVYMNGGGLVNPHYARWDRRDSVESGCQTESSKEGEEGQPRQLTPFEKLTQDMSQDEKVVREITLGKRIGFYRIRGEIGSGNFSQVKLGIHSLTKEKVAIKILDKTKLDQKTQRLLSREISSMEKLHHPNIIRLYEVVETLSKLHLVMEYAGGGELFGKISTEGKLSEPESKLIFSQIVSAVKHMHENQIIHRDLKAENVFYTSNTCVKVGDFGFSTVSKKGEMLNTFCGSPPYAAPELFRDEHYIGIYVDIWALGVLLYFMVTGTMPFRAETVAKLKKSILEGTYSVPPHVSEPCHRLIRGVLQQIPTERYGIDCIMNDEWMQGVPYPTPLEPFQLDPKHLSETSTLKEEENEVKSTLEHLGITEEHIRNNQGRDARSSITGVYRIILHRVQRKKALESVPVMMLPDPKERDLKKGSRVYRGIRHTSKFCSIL
T26 sequence (P10721 26-976 V559D/V654A): as the sequence (P10721 26-976 V559D) above, with V629A counted along it
T27 sequence (P52564 whole entry): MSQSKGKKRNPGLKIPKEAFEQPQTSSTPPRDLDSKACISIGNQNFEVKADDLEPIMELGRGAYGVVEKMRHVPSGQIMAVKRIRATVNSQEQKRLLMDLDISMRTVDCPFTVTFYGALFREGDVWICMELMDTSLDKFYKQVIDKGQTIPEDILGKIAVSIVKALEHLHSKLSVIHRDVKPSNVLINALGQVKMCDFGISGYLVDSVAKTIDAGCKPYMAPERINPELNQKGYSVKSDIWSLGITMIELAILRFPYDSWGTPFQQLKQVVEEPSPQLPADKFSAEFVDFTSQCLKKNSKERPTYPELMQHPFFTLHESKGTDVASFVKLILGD

Work on `COc1cc(/C=C2\N=C(N)NC2=O)ccc1O` [Polyandrocarpamine A] yielded a Score [1] of 100, a Score [2] of 86 and a Score [3] of 100. For the same compound, the Score (ADCK4) was 98, the Score (AKT2) was 100 and the Score (ASK2) was 100. The Score (AURKA) was 100, the Score (AURKC) was 99 and the Score (AXL) was 100. The Score (BRSK1) was 100, the Score (CAMK1D) was 100 and the Score (CHEK1) was 100. The Score (CSNK1G1) was 100, the Score (EGFR) was 99 and the Score (EPHA7) was 100. The Score (ERN1) was 100, the Score (FGFR3) was 100 and the Score (FLT3(R834Q)) was 100. The Score (GCN2(Kin.Dom.2,S808G)) was 90, the Score (GRK1) was 100 and the Score (GSK3B) was 100. It also gave a Score (HIPK1) of 52, a Score (IKK-alpha) of 100 and a Score (INSR) of 90. For the same compound, the Score (KIT(V559D)) was 91, the Score (KIT(V559D,V654A)) was 100 and the Score (MEK6) was 100. It also gave a Score (MET) of 100, a Score (MLCK) of 100 and a Score (MLK2) of 100. It also gave a Score (NEK11) of 100, a Score (NIM1) of 100 and a Score (SRC) of 100. It also gave a Score (TAOK3) of 87, a Score (TNNI3K) of 98 and a Score (YANK3) of 100.
